Laboratory results: patent US20250074885A1, “CRYSTALLINE FREEBASE FORM OF 2-(4-CHLOROBENZYLAMINO)-4-(4-TERT-BUTYLAMINOPIPERIDIN-1-YL)-QUINOLINE AND USES THEREOF” (Genoscience Pharma, priority 2023, published 2025)
Like-named read-outs stand apart in the source and are kept apart here.

How the values were obtained:
Type in all cases: physicochemical
[1] = Visual (apparent) solubility assessment in re-crystallization solvents; conditions: for solubility: 20 °C, organic solvent or mixture, thermodynamic from solid, read-out: Estimated solubility
Experimental: Prior to launching the slurry experiments, an “apparent solubility” is determined in all ageing media. To do so, to accurately weighed small amounts of 2-(4-chlorobenzylamino)-4-(4-tert-butylaminopiperidin-1-yl)-quinoline, aliquots of each solvent are successively added until complete dissolution is observed. The corresponding solubility S is then estimated.

[2] = Dynamic water vapor sorption (DVS) analysis; conditions: for Hygroscopicity: DVS; for Conversion into hydrated form: high relative humidity up to 95%
Experimental: The dynamic vapor sorption (DVS) analysis (gas water sorption) is performed on a DVS-Intrinsic incubator (SMS Ltd), equipped with DVS-Intrinsic Control Software 1.0.
The sample, placed in an aluminum basket holder, is submitted to a full-cycle analysis (sorption followed by desorption cycle) under the conditions described in Table 9.
The sample is first pre-dried under a stream of dry air until a stabilized sample mass is observed. Then, the relative humidity is increased by 5% increments. At each step, the sample mass is allowed to increase until equilibrium is reached (according to a given dm/dt target), and then a new relative humidity rise occurs. Relative humidity is ramped up to 95%. After equilibration at this point, desorption begins in a similar stepwise manner, with sample mass decrease again allowed to stabilize after each incremental humidity decrease.
With both segments of the above described method, the sample mass recording allows describing of the whole vapor water sorption/desorption behavior versus relative humidity.

[3] = Chemical stability of bulk powder under temperature and humidity stress (HPLC); conditions: for Chemical stability as a bulk powder: at least 1 month at +40° C./75% RH and at +60° C.; for % of unchanged compound left (HPLC-UV at 323 nm): bulk powder, versus standard solutions
Experimental: (§1) The chemical and physical accelerated stability of crystalline form I (see example II) is studied in order to anticipate potential stability issues upon storage or ageing.
(§2) Crystalline form I powder is stored for 1 month at +40° C./75% RH and is also stored for 1 month at +60° C. (with % RH<10%).
The chemical stability is then assessed by chromatography by external standardization versus a freshly prepared (non-stressed crystalline form I) standard solution. For that purpose, three samples (exactly weighted) are stored for each condition.

[4] = Physical stability of bulk powder under temperature and humidity stress (XRPD, DSC, TGA); conditions: for Physical stability as a bulk powder: at least 1 month at +40° C./75% HR and at +60° C.
Experimental: as §1, §2
The physical stability is also assessed by XRPD, DSC and TGA analyses by comparing the XRPD and thermal profiles of stressed samples to those of a non-stressed sample. For that purpose, one more sample is stored in each condition (respectively +40° C./75% RH and +60° C.).

[5] = Thermogravimetric analysis (TGA), thermal decomposition
Experimental: Thermogravimetric analysis is performed on a TA Instruments TGA Hi-Res 2950 apparatus equipped with an evolved gas analysis furnace. A ThermoNicolet Nexus FTIR bench, equipped with FTIR cell gas analysis, is coupled to TGA apparatus via a transfer line.
A sample is placed in an opened aluminum basket and analyzed according to conditions described in Table 6.

[6] = 1 month +40° C./75% RH and +60° C.

CC(C)(C)NC1CCN(c2cc(NCc3ccc(Cl)cc3)nc3ccccc23)CC1 [2-(4-chlorobenzylamino)-4-(4-tert-butylaminopiperidin-1-yl)-quinoline]
solubility ([1]; Acetone, visual, 20-25° C.): > 16 mg/mL
solubility ([1]; EtAc, visual, 20-25° C.): > 17.1 mg/mL
solubility ([1]; EtOH, visual, 20-25° C.): > 9.8 mg/mL
solubility ([1]; IPA, visual, 20-25° C.): > 2.6 mg/mL
solubility ([1]; IPAC, visual, 20-25° C.): > 15.2 mg/mL
solubility ([1]; MEK, visual, 20-25° C.): > 2.4 mg/mL
solubility ([1]; Propanol-1, visual, 20-25° C.): > 15.1 mg/mL

CC(C)(C)NC1CCN(c2cc(NCc3ccc(Cl)cc3)nc3ccccc23)CC1 [2-(4-chlorobenzylamino)-4-(4-tert-butylaminopiperidin-1-yl)-] [2-(4-chlorobenzylamino)-4-(4-tert-butylaminopiperidin-1-yl)-quinoline]
Solubility (grade in words) ([1]; Acetone, 20-25° C.): Medium
Solubility (grade in words) ([1]; EtAc, 20-25° C.): Medium
Solubility (grade in words) ([1]; EtOH, 20-25° C.): Medium
Solubility (grade in words) ([1]; IPA, 20-25° C.): Low
Solubility (grade in words) ([1]; IPAC, 20-25° C.): Medium
Solubility (grade in words) ([1]; MEK, 20-25° C.): Low
Solubility (grade in words) ([1]; Propanol-1, 20-25° C.): Medium
Hygroscopicity ([2]; +25° C.): not hygroscopic at all
Conversion into hydrated form [2]: does not convert into any hydrated form
Chemical stability as a bulk powder [3]: chemically and physically stable
Physical stability as a bulk powder [4]: chemically and physically stable

CC(C)(C)NC1CCN(c2cc(NCc3ccc(Cl)cc3)nc3ccccc23)CC1 [Crystalline Form I, 2-(4-chlorobenzylamino)-4-(4-tert-butylaminopiperidin-1-yl)-quinoline]
Sample mass variation upon sorption ([2]; +25° C., 0% to 10% RH): no significant mass variation
Hygroscopicity ([2]; +25° C.): non-hygroscopic at all
Final sample mass lower than starting mass after desorption ([2]; +25° C., back to 0% RH, cycle 1, versus mass after pre-drying): 0.09%
Hysteresis on loss of adsorbed water (desorption) ([2]; +25° C., between 95% and 65% RH): without hysteresis
Mass loss during preliminary drying phase ([2]; +25° C./0% RH, before sorption): 0.12%
Water uptake ([2]; +25° C./60% RH, sorption cycle 1): 0.09%
Total water uptake ([2]; +25° C./95% RH, sorption cycle 1): 0.29%
Conversion into hydrated form [2]: does not convert into any hydrated form
% purity at 323 nm after stress ([3]; 1 month +40° C./75% RH): (% purity = 98.7% at 323 nm)
Impurity profile compared to the standard profile (HPLC-UV at 323 nm, 252 nm and 203 nm) ([3]; 1 month +40° C./75% RH): No additional impurity
% purity at 323 nm after stress ([3]; 1 month +60° C.): (% purity = 98.8% at 323 nm)
Impurity profile compared to the standard profile (HPLC-UV at 323 nm, 252 nm and 203 nm) ([3]; 1 month +60° C.): No additional impurity
Chemical stability as a bulk powder [3]: chemically stable
% of unchanged compound left (HPLC-UV at 323 nm) ([3]; 1 month +40° C./75% RH): 99.7%
% of unchanged compound left (HPLC-UV at 323 nm) ([3]; 1 month +60° C.): 100.5%
TOnset of main thermal decomposition (TGA) ([5]; non-stressed sample (initial analysis)): +333 °C
Mass loss before the main thermal decomposition (TGA) ([5]; non-stressed sample, upon heating): no mass loss is detected
XRPD results ([4]; 1 month +40° C./75% HR): Diffractogram comparable to the initial
TOnset of main thermal decomposition (TGA) ([4]; 1 month +40° C./75% RH): +333 °C
TGA difference between stressed samples and initial physical form [4, 6]: No difference
XRPD pattern difference between stressed samples and initial physical form [4, 6]: No XRPD pattern difference
TOnset of main thermal decomposition (TGA) ([4]; 1 month +60° C.): +334 °C
XRPD results ([4]; 1 month +60° C.): Diffractogram comparable to the initial
Physical stability as a bulk powder [4]: physically stable
DSC profile difference between stressed samples and initial physical form ([4]; stored at +40° C./75% RH and at +60° C.): No DSC profile difference
